Results published in ChEMBL document CHEMBL5375997, “Small Molecule Inhibitors Targeting the "Undruggable" Survivin: The Past, Present, and Future from a Medicinal Chemist's Perspective” (J Med Chem, 2023).
pIC50: −log10 of the molar value. Each block holds one compound with its values, some of them ahead of it.

Key:
[1] = tested on: PC-3; assay: Cytotoxicity against human PC-3 cells assessed as reduction in cell viability incubated for 24 hrs by MTT assay; conditions: PC-3, 24 h
[2] = tested on: DU-145; assay: cells; conditions: Homo sapiens, DU-145, 24 h
Description: Cytotoxicity against human DU-145 cells assessed as inhibition of cell growth incubated for 24 hrs by MTT assay

[3] = tested on: PC-3; assay: Cytotoxicity against human PC-3 cells assessed as reduction in cell growth incubated for 72 hrs by SRB assay; assay type: functional, cell-based; conditions: PC-3, 72 h
[4] = tested on: HepG2; assay: Cytotoxicity against human HepG2 cells assessed as reduction in cell viability incubated for 72 hrs by SRB assay; assay type: functional, cell-based; conditions: HepG2, 72 h
[5] = tested on: MDA-MB-231; assay: Cytotoxicity against human MDA-MB-231 cells assessed as inhibition of cell growth incubated for 72 hrs by SRB assay; assay type: functional, cell-based; conditions: MDA-MB-231, 72 h
[6] = tested on: NCI-H69; assay: Antiproliferative activity against human NCI-H69 cells assessed as reduction in cell growth; assay type: functional, cell-based
[7] = tested on: PC-3; assay: Anticancer activity against human PC-3 cells assessed as cell growth inhibition by sulforhodamine B assay; assay type: functional, cell-based
[8] = tested on: LNCaP C4-2; assay: Cytotoxicity against human LNCaP C4-2 cells assessed as cell growth inhibition incubated for 24 hrs by MTT assay; assay type: functional, cell-based; conditions: LNCaP C4-2, 24 h
[9] = tested on: LNCaP C4-2; assay: Antiproliferative activity against human LNCaP C4-2 cells assessed as cell growth inhibition; assay type: functional, cell-based
[10] = tested on: GBM528 (human); assay: Antiproliferative activity against human GBM528 cells assessed as sphere formation inhibition
[11] = tested on: EL4; assay: Cytotoxicity against mouse EL4 cells assessed as inhibition of cell proliferation incubated for 72 hrs by MTT assay; assay type: functional, cell-based; conditions: EL4, 72 h
[12] = tested on: L1210; assay: Antiproliferative activity against mouse L1210 cells assessed as reduction in cell viability incubated for 48 hrs by MTT assay; assay type: functional, cell-based; conditions: L1210, 48 h
[13] = tested on: PC-3; assay: Cytotoxicity against human PC-3 cells assessed as inhibition of cell growth; assay type: functional, cell-based
[14] = tested on: DU-145; assay: Cytotoxicity against human DU-145 cells assessed as inhibition of cell growth; assay type: functional, cell-based
[15] = tested on: M14; assay: Antiproliferative activity against human M14 cells assessed as reduction cell viability incubated for 48 hrs by MTT assay; assay type: functional, cell-based; conditions: M14, 48 h
[16] = tested on: M14; assay: Antiproliferative activity against human M14 cells assessed as inhibition of cell growth measured after 48 hrs by SRB assay; assay type: functional, cell-based; conditions: M14, 48 h
[17] = tested on: A-375; assay: Cytotoxicity against human A-375 cells assessed as inhibition of cell growth; assay type: functional, cell-based
[18] = tested on: HeLa; assay: Cytotoxicity against human HeLa cells assessed as inhibition of cell growth by MTT assay; assay type: functional, cell-based
[19] = tested on: HCT-116; assay: Cytotoxicity against human HCT-116 cells assessed as reduction in cell viability by MTT assay; assay type: functional, cell-based
[20] = tested on: A549; assay: Cytotoxicity against human A549 cells assessed as reduction in cell viability by MTT assay; assay type: functional, cell-based
[21] = tested on: MCF7; assay: Cytotoxicity against human MCF7 cells assessed as inhibition of cell growth by MTT assay; assay type: functional, cell-based
[22] = Cytotoxicity against human HepG2 cells assessed as reduction in cell viability by MTT assay; assay type: functional, cell-based
[23] = Cmax in […] at 1 mg/kg, iv and measured upto 24 hrs by LC/MS/MS analysis; assay type: ADME, organism-based; parameters: time < 24 hrs, dose 1 mg/kg, route iv; conditions: in vivo
[24] = Half life in CD1 mouse at 1 mg/kg, iv by LC-MS/MS analysis; assay type: ADME, organism-based; conditions: in vivo
[25] = tested on: HCT-8; assay: Antiproliferative activity against human HCT-8 cells assessed as inhibition of cell growth; assay type: functional, cell-based
[26] = AUC in mouse plasma at 3 mg/kg, iv measured upto 24 hrs by LC-MS/MS analysis; assay type: ADME, organism-based; parameters: dose 3 mg/kg, time < 24 hrs, route iv; conditions: in vivo
[27] = tested on: SW-620; assay: Antiproliferative activity against human SW620 cells assessed as reduction in cell viability incubated for 72 hrs by MTT assay; assay type: functional, cell-based; conditions: SW-620, 72 h
[28] = tested on: NCI-H460; assay: Antiproliferative activity against human NCI-H460 cells assessed as reduction in cell viability incubated for 24 hrs by MTT assay; assay type: functional, cell-based; conditions: NCI-H460, 24 h
[29] = tested on: EKVX; assay: Antiproliferative activity against human EKVX cells assessed as cell growth inhibition incubated for 72 hrs by MTT assay; assay type: functional, cell-based
[30] = tested on: HCT-116; assay: Antiproliferative activity against human HCT-116 cells assessed as reduction in cell proliferation measured after 72 hrs by MTT assay; assay type: functional, cell-based; conditions: HCT-116, 72 h
[31] = Clearance in […] at 3 mg/kg, iv incubated for 24 hrs by LC-MS/MS analysis; assay type: ADME, organism-based; conditions: in vivo
[32] = tested on: A549; assay: Antiproliferative activity against human A549 cells assessed as reduction in cell viability by MTT assay; assay type: functional, cell-based
[33] = Oral bioavailability in mouse plasma; assay type: ADME, organism-based
[34] = Cmax in […] at 1 mg/kg, po and measured upto 24 hrs by LC/MS/MS analysis; assay type: ADME, organism-based; parameters: time < 24 hrs, dose 1 mg/kg, route po; conditions: in vivo
[35] = Cytotoxicity against human HaCaT cells assessed as reduction in cell viability; assay type: toxicity, cell-based
[36] = tested on: A-375; assay: Anticancer activity against human A375 cells assessed as reduction in cell viability incubated for 72 hrs by MTT assay; assay type: functional, cell-based; conditions: A-375, 72 h
[37] = tested on: DU-145; assay: Cytotoxicity against human DU-145 cells assessed as reduction in cell viability by SRB assay; assay type: functional, cell-based
[38] = Tmax in human plasma at 10 mg/kg, iv measured after 24 hrs; assay type: ADME, organism-based
[39] = Half life in iv dosed human plasma; assay type: ADME, organism-based
[40] = tested on: CWR22R; assay: Cytotoxicity against human 22Rv1 cells assessed as cell growth inhibition; assay type: functional, cell-based
[41] = tested on: SK-MEL-5; assay: Antiproliferative activity against human SK-MEL-5 cells assessed as reduction in cell viability; assay type: functional, cell-based
[42] = Half life in human plasma after iv dosing; conditions: in vivo

- pIC50 [2]: 5.59
SMILES: Cc1cccc(Nc2nc3nonc3nc2N/N=C/c2cc3c(cc2[N+](=O)[O-])OCO3)c1C
- pIC50 [1]: 5.68

SMILES: N#Cc1c(-c2ccccc2)cc(-c2ccc(OCc3ccc(F)cc3)cc2)[nH]c1=O
- pIC50 [3]: 4.84
- pIC50 [4]: 4.84
- pIC50 [5]: 4.84

SMILES: N#Cc1c(-c2ccc(Cl)cc2)cc(-c2ccc(OCc3ccc(F)cc3)cc2)[nH]c1=S
- pIC50 [3]: 4.64
- pIC50 [4]: 4.64
- pIC50 [5]: 4.64

SMILES: COc1ccc(-c2cc(-c3ccc(OCc4ccc(F)cc4)cc3)nc(N)c2C#N)cc1
- pIC50 [3]: < 4.00
- pIC50 [4]: < 4.00
- pIC50 [5]: < 4.00

- pIC50 [6]: 5.41
SMILES: Oc1ccc(CCCCc2ccc(O)cc2)cc1

- pIC50 [7]: 5.37
- pIC50 [9]: 5.72
SMILES: Nc1nonc1C(=O)N/N=C1\c2ccccc2-c2nc3nonc3nc21
- pIC50 [8]: 5.72
- pIC50 [1]: 5.37

SMILES: N#Cc1c(-c2ccc(Cl)cc2)cc(-c2ccc(OCc3ccc(F)cc3)cc2)nc1N
- pIC50 [3]: < 4.00
- pIC50 [4]: < 4.00
- pIC50 [5]: < 4.00

SMILES: N#Cc1c(-c2ccc(F)cc2)cc(-c2ccc(OCc3ccc(F)cc3)cc2)[nH]c1=S
- pIC50 [3]: 4.64
- pIC50 [4]: 4.64
- pIC50 [5]: 4.64

- pIC50 [2]: 4.22
SMILES: O=C1N=c2ccc(Nc3nc4nonc4nc3N/N=C/c3ccccc3OCc3ccc(Cl)cc3Cl)cc2=N1
- pIC50 [1]: 4.30

SMILES: N#Cc1c(-c2ccccc2)cc(-c2ccc(OCc3ccc(F)cc3)cc2)[nH]c1=S
- pIC50 [3]: 4.64
- pIC50 [4]: 4.64
- pIC50 [5]: 4.64

- pIC50 [6]: < 4.00
SMILES: Oc1ccc(CCCc2ccc(O)c(O)c2)cc1O

- pIC50 [2]: 4.60
SMILES: Cc1cccc(Nc2nc3nonc3nc2N/N=C/c2ccc(-c3cccc(C(=O)O)c3)o2)c1C
- pIC50 [1]: 4.70

- pIC50 [6]: 5.22
SMILES: Oc1cc(CCCCc2cc(O)c(O)c(O)c2)cc(O)c1O

SMILES: N#Cc1c(-c2cc(OCc3ccccc3)cc(OCc3ccccc3)c2)cc(-c2cc(Cl)ccc2O)[nH]c1=O
- pIC50 [10]: 4.51

SMILES: COc1cccc(Nc2nc3ccccc3nc2Nc2cccc(OC)c2OC)c1OC
- pIC50 [8]: 4.75
- pIC50 [1]: 4.61

SMILES: COc1ccc(-c2cc(-c3ccc(OCc4ccc(F)cc4)cc3)[nH]c(=O)c2C#N)cc1
- pIC50 [3]: 5.35
- pIC50 [4]: 5.22
- pIC50 [5]: 5.44

- pIC50 [2]: 5.48
SMILES: Cc1ccc(-c2ccc(/C=N/Nc3nc4nonc4nc3Nc3ccc(Br)cc3)o2)cc1Cl
- pIC50 [1]: 5.46

- pIC50 [12]: 6.82
SMILES: CO[C@]12CC(=O)O[C@]13C(=O)c1c(cc4cc(O)c5c(c4c1O)CN(C)C5=O)C(=O)[C@]3(O[C@H]1CC[C@H](O)[C@H](C)O1)CO2
- pIC50 [11]: 6.95

SMILES: N#Cc1c(-c2ccc(F)cc2)cc(-c2ccc(OCc3ccc(F)cc3)cc2)[nH]c1=O
- pIC50 [3]: 4.84
- pIC50 [4]: 4.84
- pIC50 [5]: 4.84

SMILES: Oc1c(CN2CCCC2)cc(COCc2ccccc2)c2cccnc12
- pIC50 [13]: 6.15
- pIC50 [14]: 5.47
- pIC50 [15]: 5.60
- pIC50 [16]: 5.49
- pIC50 [17]: 5.80

SMILES: N#Cc1c(-c2ccc(Br)cc2)cc(-c2ccc(OCc3ccc(F)cc3)cc2)[nH]c1=O
- pIC50 [3]: 4.84
- pIC50 [4]: 4.84
- pIC50 [5]: 4.84

SMILES: CC[C@@]1(O)C(=O)OCc2c1cc1n(c2=O)Cc2cc3c(-c4ccc(C(F)(F)F)cc4)c4c(cc3nc2-1)OCO4
- pIC50 [18]: 6.11
- pIC50 [19]: 6.11
- pIC50 [20]: 6.11
- pIC50 [21]: 6.11
- pIC50 [22]: 6.11

SMILES: CC[C@@]1(O)C(=O)OCc2c1cc1n(c2=O)Cc2cc3cc4c(cc3nc2-1)OCO4
- Cmax [23]: 0.043 µg/mL
- half-life [24]: 1.8 h
- pIC50 [25]: 8.30
- AUC [26]: 0.082 µg·h/mL
- pIC50 [27]: 8.05
- pIC50 [28]: 8.52
- pIC50 [29]: 8.22
- pIC50 [30]: 8.30
- clearance [31]: 54 L/h/kg
- pIC50 [32]: 8.05

- pIC50 [6]: 5.52
SMILES: Oc1ccc(CCCCCc2ccc(O)c(O)c2)cc1O

- Cmax [23]: 1.06 µg/mL
- bioavailability [33]: 88.3%
- AUC [26]: 2.98 µg·h/mL
- Cmax [34]: 0.442 µg/mL
SMILES: COc1ccc(C[C@@H](C)[C@@H](C)Cc2ccc(OC)c(OC)c2)cc1OC [TERAMEPROCOL]
- pIC50 [35]: 4.07

- pIC50 [2]: 5.46
SMILES: CCOC(=O)c1ccc(Nc2nc3nonc3nc2N/N=C/c2c[nH]nc2-c2ccccc2)cc1

SMILES: COc1ccc(-c2cc(-c3ccc(OCc4ccc(F)cc4)cc3)[nH]c(=S)c2C#N)cc1
- pIC50 [3]: 4.64
- pIC50 [4]: 4.64
- pIC50 [5]: 4.64

SMILES: N#Cc1c(-c2ccc(Br)cc2)cc(-c2ccc(OCc3ccc(F)cc3)cc2)nc1N
- pIC50 [3]: 4.52
- pIC50 [4]: 4.52
- pIC50 [5]: 4.52

SMILES: N#Cc1c(-c2ccc(Cl)cc2)cc(-c2ccc(OCc3ccc(F)cc3)cc2)[nH]c1=O
- pIC50 [3]: 4.84
- pIC50 [4]: 4.84
- pIC50 [5]: 4.84

- pIC50 [36]: 8.22
- Cmax [23]: 0.0107 µg/mL
- AUC [26]: 1.44 µg·h/mL
- Tmax [38]: 46 h
- half-life [39]: 26.3 h
- pIC50 [41]: 8.40
- half-life [42]: 17.2 h
- clearance [31]: 47.7 L/h/kg
SMILES: COCCn1c2c([n+](Cc3cnccn3)c1C)C(=O)c1ccccc1C2=O.[Br-] [SEPANTRONIUM BROMIDE]
- pIC50 [37]: 8.40
- pIC50 [40]: 7.96

- pIC50 [2]: 5.14
SMILES: Cc1cccc(Nc2nc3nonc3nc2N/N=C/c2ccc(-c3ccc(Cl)c([N+](=O)[O-])c3)o2)c1C
- pIC50 [1]: 5.32

SMILES: N#Cc1c(-c2ccc(Br)cc2)cc(-c2ccc(OCc3ccc(F)cc3)cc2)[nH]c1=S
- pIC50 [3]: 4.64
- pIC50 [4]: 4.64
- pIC50 [5]: 4.64

SMILES: N#Cc1c(-c2ccccc2)cc(-c2ccc(OCc3ccc(F)cc3)cc2)nc1N
- pIC50 [3]: < 4.00
- pIC50 [4]: < 4.00
- pIC50 [5]: < 4.00
